Source: the supplement of paper PMC10307832

Experiments:
Assay in all cases: relative viability (nuclei count vs DMSO), 5 days (fraction); higher = more cells survive
LCLC-97TM1 = tested on: LCLC-97TM1
Procedure, shortened: (§1)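 Lung cancer cell lines in 1536-well plates got either a single drug or a fixed anchor-drug dose together with five library-drug doses (not always all listed) in √10 steps, by pin tool, on the day after seeding. Nuclei were counted after 5 days, and relative viability is the treated-to-vehicle ratio of nuclei counts. Values are medians of duplicate plates.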

BEN = tested on: BEN
Procedure, shortened: as §1

201T = tested on: 201T
Procedure, shortened: as §1

LCLC-103H = tested on: LCLC-103H
Procedure, shortened: as §1

NCI-H3122 = tested on: NCI-H3122
Procedure, shortened: as §1

NCI-H1650 = tested on: NCI-H1650
Procedure, shortened: as §1

NCI-H2087 = tested on: NCI-H2087
Procedure, shortened: as §1

NCI-H2228 = tested on: NCI-H2228
Procedure, shortened: as §1

NCI-H1395 = tested on: NCI-H1395
Procedure, shortened: as §1

NCI-H2405 = tested on: NCI-H2405
Procedure, shortened: as §1

SK-LU-1 = tested on: SK-LU-1
Procedure, shortened: as §1

NCI-H1792 = tested on: NCI-H1792
Procedure, shortened: as §1

NCI-H322M = tested on: NCI-H322M
Procedure, shortened: as §1

RERF-LC-KJ = tested on: RERF-LC-KJ
Procedure, shortened: as §1

NCI-H1944 = tested on: NCI-H1944
Procedure, shortened: as §1

NCI-H1793 = tested on: NCI-H1793
Procedure, shortened: as §1

HCC-827 = tested on: HCC-827
Procedure, shortened: as §1

CAL-12T = tested on: CAL-12T
Procedure, shortened: as §1

NCI-H727 = tested on: NCI-H727
Procedure, shortened: as §1

NCI-H1437 = tested on: NCI-H1437
Procedure, shortened: as §1

NCI-H647 = tested on: NCI-H647
Procedure, shortened: as §1

LXF-289 = tested on: LXF-289
Procedure, shortened: as §1

Cc1sc2c(c1C)C(c1ccc(Cl)cc1)=N[C@@H](CC(=O)OC(C)(C)C)c1nnc(C)n1-2 [JQ1] + COc1cccc2cc(-c3nc([C@H]4CC[C@H](C(=O)O)CC4)n4ncnc(N)c34)[nH]c12 [OSI-027] (partner 0.5 µM)
relative viability (LCLC-97TM1; first compound 0.04 µM): 0.476 | relative viability (LCLC-97TM1; first compound 0.1265 µM): 0.674 | relative viability (LCLC-97TM1; first compound 0.4 µM): 0.594 | relative viability (LCLC-97TM1; first compound 1.265 µM): 0.4 | relative viability (LCLC-97TM1; first compound 4 µM): 0.199 | relative viability (BEN; first compound 0.04 µM): 0.282 | relative viability (BEN; first compound 0.1265 µM): 0.286 | relative viability (BEN; first compound 0.4 µM): 0.335 | relative viability (BEN; first compound 1.265 µM): 0.252 | relative viability (BEN; first compound 4 µM): 0.2 | relative viability (201T; first compound 0.04 µM): 0.761 | relative viability (201T; first compound 0.1265 µM): 0.596 | relative viability (201T; first compound 0.4 µM): 0.688 | relative viability (201T; first compound 1.265 µM): 0.238 | relative viability (201T; first compound 4 µM): 0.201 | relative viability (LCLC-103H; first compound 0.04 µM): 0.443 | relative viability (LCLC-103H; first compound 0.1265 µM): 0.448 | relative viability (LCLC-103H; first compound 0.4 µM): 0.367 | relative viability (LCLC-103H; first compound 1.265 µM): 0.357 | relative viability (LCLC-103H; first compound 4 µM): 0.29 | relative viability (NCI-H3122; first compound 0.04 µM): 0.898 | relative viability (NCI-H3122; first compound 0.4 µM): 0.784 | relative viability (NCI-H3122; first compound 1.265 µM): 0.392 | relative viability (NCI-H3122; first compound 4 µM): 0.264 | relative viability (NCI-H1650; first compound 0.04 µM): 0.51 | relative viability (NCI-H1650; first compound 0.1265 µM): 0.447 | relative viability (NCI-H1650; first compound 0.4 µM): 0.328 | relative viability (NCI-H1650; first compound 1.265 µM): 0.153 | relative viability (NCI-H1650; first compound 4 µM): 0.206 | relative viability (NCI-H2087; first compound 0.04 µM): 0.586 | relative viability (NCI-H2087; first compound 0.1265 µM): 0.643 | relative viability (NCI-H2087; first compound 0.4 µM): 0.699 | relative viability (NCI-H2087; first compound 1.265 µM): 0.302 | relative viability (NCI-H2087; first compound 4 µM): 0.301 | relative viability (NCI-H2228; first compound 0.04 µM): 0.731 | relative viability (NCI-H2228; first compound 0.1265 µM): 0.657 | relative viability (NCI-H2228; first compound 0.4 µM): 0.466 | relative viability (NCI-H2228; first compound 1.265 µM): 0.257 | relative viability (NCI-H2228; first compound 4 µM): 0.296 | relative viability (NCI-H1395; first compound 0.04 µM): 0.626 | relative viability (NCI-H1395; first compound 0.1265 µM): 0.489 | relative viability (NCI-H1395; first compound 0.4 µM): 0.605 | relative viability (NCI-H1395; first compound 1.265 µM): 0.488 | relative viability (NCI-H1395; first compound 4 µM): 0.477 | relative viability (NCI-H2405; first compound 0.04 µM): 0.651 | relative viability (NCI-H2405; first compound 0.1265 µM): 0.632 | relative viability (NCI-H2405; first compound 0.4 µM): 0.696 | relative viability (NCI-H2405; first compound 1.265 µM): 0.58 | relative viability (NCI-H2405; first compound 4 µM): 0.582 | relative viability (SK-LU-1; first compound 0.04 µM): 0.381 | relative viability (SK-LU-1; first compound 0.1265 µM): 0.333 | relative viability (SK-LU-1; first compound 0.4 µM): 0.253 | relative viability (SK-LU-1; first compound 1.265 µM): 0.158 | relative viability (SK-LU-1; first compound 4 µM): 0.143 | relative viability (NCI-H1792; first compound 0.04 µM): 0.666 | relative viability (NCI-H1792; first compound 0.4 µM): 0.82 | relative viability (NCI-H1792; first compound 1.265 µM): 0.497 | relative viability (NCI-H1792; first compound 4 µM): 0.57 | relative viability (NCI-H322M; first compound 0.04 µM): 0.518 | relative viability (NCI-H322M; first compound 0.1265 µM): 0.589 | relative viability (NCI-H322M; first compound 0.4 µM): 0.477 | relative viability (NCI-H322M; first compound 1.265 µM): 0.321 | relative viability (NCI-H322M; first compound 4 µM): 0.339 | relative viability (RERF-LC-KJ; first compound 0.04 µM): 0.634 | relative viability (RERF-LC-KJ; first compound 0.1265 µM): 0.518 | relative viability (RERF-LC-KJ; first compound 0.4 µM): 0.531 | relative viability (RERF-LC-KJ; first compound 1.265 µM): 0.335 | relative viability (RERF-LC-KJ; first compound 4 µM): 0.338 | relative viability (NCI-H1944; first compound 0.04 µM): 0.39 | relative viability (NCI-H1944; first compound 0.1265 µM): 0.364 | relative viability (NCI-H1944; first compound 0.4 µM): 0.375 | relative viability (NCI-H1944; first compound 1.265 µM): 0.227 | relative viability (NCI-H1944; first compound 4 µM): 0.25 | relative viability (NCI-H1793; first compound 0.04 µM): 0.237 | relative viability (NCI-H1793; first compound 0.1265 µM): 0.343 | relative viability (NCI-H1793; first compound 0.4 µM): 0.38 | relative viability (NCI-H1793; first compound 1.265 µM): 0.241 | relative viability (NCI-H1793; first compound 4 µM): 0.286 | relative viability (HCC-827; first compound 0.04 µM): 0.704 | relative viability (HCC-827; first compound 0.4 µM): 0.532 | relative viability (HCC-827; first compound 1.265 µM): 0.866 | relative viability (HCC-827; first compound 4 µM): 0.738 | relative viability (CAL-12T; first compound 0.04 µM): 0.618 | relative viability (CAL-12T; first compound 0.1265 µM): 0.586 | relative viability (CAL-12T; first compound 0.4 µM): 0.32 | relative viability (CAL-12T; first compound 1.265 µM): 0.192 | relative viability (CAL-12T; first compound 4 µM): 0.173 | relative viability (NCI-H727; first compound 0.04 µM): 0.576 | relative viability (NCI-H727; first compound 0.1265 µM): 0.582 | relative viability (NCI-H727; first compound 0.4 µM): 0.414 | relative viability (NCI-H727; first compound 1.265 µM): 0.375 | relative viability (NCI-H727; first compound 4 µM): 0.406 | relative viability (NCI-H1437; first compound 0.04 µM): 0.871 | relative viability (NCI-H1437; first compound 0.1265 µM): 0.809 | relative viability (NCI-H1437; first compound 0.4 µM): 0.599 | relative viability (NCI-H1437; first compound 1.265 µM): 0.36 | relative viability (NCI-H1437; first compound 4 µM): 0.319 | relative viability (NCI-H647; first compound 0.04 µM): 0.567 | relative viability (NCI-H647; first compound 0.1265 µM): 0.469 | relative viability (NCI-H647; first compound 0.4 µM): 0.388 | relative viability (NCI-H647; first compound 1.265 µM): 0.293 | relative viability (NCI-H647; first compound 4 µM): 0.174 | relative viability (LXF-289; first compound 0.04 µM): 0.803 | relative viability (LXF-289; first compound 0.1265 µM): 0.695 | relative viability (LXF-289; first compound 0.4 µM): 0.614 | relative viability (LXF-289; first compound 1.265 µM): 0.297 | relative viability (LXF-289; first compound 4 µM): 0.173
